From patent US20250319107A1, “USE OF CANNABIDIOL AND CLOBAZAM IN THE TREATMENT OF CHILDHOOD-ONSET EPILEPSY SYNDROMES” (GW Research Limited, priority 2021, published 2025)

Tests used:
[1] = test system: patients with LGS or DS; experiment: Phase 3 randomized controlled trials of CBD versus placebo, adverse reactions in DS and LGS patients; type: in vivo, human; settings: for Subjects with pneumonia, %: LGS and DS; for Pneumonia incidence: controlled trials
Description: (§1) Randomized, double-blind, parallel-group, trials of CBD versus placebo were undertaken and the adverse event experienced by the patients were collated and investigated.
(§2) In summary patients completed a 1-week screening period and a 4-week baseline period before they were randomized to receive CBD or equivalent volumes of placebo. Randomization was stratified by age.
(§3) Patients began a 4-week dose escalation period, titrating up to their assigned dose, before continuing on a stable dose of blinded investigational medicinal product (IMP) for 12 or 14 weeks.
(§4) Dose escalation for each patient was subject to the investigator's assessment of safety and tolerability. If a dose became poorly tolerated, the investigator may consider temporarily or permanently reducing the dose for the remainder of the study.
(§5) Clinic visits occurred for screening (Day-35), baseline (Day-28), randomization (Day 1) and, on Days 15 and 29 during titration and on Days 43, 57, 71 (telephone) and 85 until the end of treatment (Day 113). Safety telephone calls were completed every two days during titration, one week after the end of titration and, for patients not entering the open label extension (OLE), weekly from Visit 10 to Visit 12.
(§6) Safety and tolerability measures that were recorded included: adverse events; clinical laboratory parameters; 12-lead electrocardiogram (ECG); physical examination parameters (including height and weight); vital signs; Columbia-Suicide Severity Rating Scale (C-SSRS; 19+ years) or C-SSRS Children's (6-18 years) score, where applicable; number of inpatient hospitalizations due to epilepsy; abuse liability and effects on menstruation cycles (in females).
Table 1.1 below lists the adverse reactions that were reported in DS and LGS patients treated with CBD during the 14-week treatment period in the Phase 3 controlled trials.

[2] = test system: mice; settings: after administration of pro-convulsant drugs or an electric current; cited from earlier work
[3] = test system: adult patients; settings: 200 mg/day of pure CBD; four adult patients; cited from earlier work
[4] = test system: adult patients with generalized epilepsy; settings: eight adult patients with generalized epilepsy; cited from earlier work
[5] = test system: patients with LGS, DS, or TSC; experiment: Double-blind placebo-controlled trials across LGS, DS and TSC, overall statements; type: in vivo, human
Description: as §1, §2, §3, §6

[6] = test system: patients with TSC; experiment: Phase 3 randomized controlled trial of CBD versus placebo, adverse reactions in TSC patients; type: in vivo, human; settings: for Alanine aminotransferase increased, adverse reaction incidence / Anaemia, adverse reaction incidence / Aspartate aminotransferase increased, adverse reaction incidence / Decreased appetite, adverse reaction incidence / Diarrhoea, adverse reaction incidence / Eosinophil count increased, adverse reaction incidence / Fatigue, adverse reaction incidence / Gamma glutamyl transferase increased, adverse reaction incidence / Nausea, adverse reaction incidence / Pneumonia (grouped terms), adverse reaction incidence / Pyrexia, adverse reaction incidence / Rash, adverse reaction incidence / Somnolence, adverse reaction incidence / Urinary tract infection, adverse reaction incidence / Vomiting, adverse reaction incidence / Weight decreased, adverse reaction incidence / Subjects with pneumonia, %: TSC; for Alanine aminotransferase increased, adverse reaction incidence / Anaemia, adverse reaction incidence / Aspartate aminotransferase increased, adverse reaction incidence / Decreased appetite, adverse reaction incidence / Diarrhoea, adverse reaction incidence / Eosinophil count increased, adverse reaction incidence / Fatigue, adverse reaction incidence / Gamma glutamyl transferase increased, adverse reaction incidence / Nausea, adverse reaction incidence / Pneumonia (grouped terms), adverse reaction incidence / Pyrexia, adverse reaction incidence / Rash, adverse reaction incidence / Somnolence, adverse reaction incidence / Urinary tract infection, adverse reaction incidence / Vomiting, adverse reaction incidence / Weight decreased, adverse reaction incidence: 12-week treatment
Description: as §1, §2, §3, §4, §5, §6
Table 1.12 below lists the adverse reactions that were reported in TSC patients treated with CBD during the 12-week treatment period in the Phase 3 controlled trial.

[7] = test system: institutionalized adult patients; settings: 200 mg/day of pure CBD; twelve institutionalized adult patients; open label; cited from earlier work
[8] = test system: healthy adults and patients with LGS, DS, and TSC; experiment: Controlled studies, serum creatinine; type: in vivo, human
Description: CBD can cause elevations in serum creatinine. The mechanism has not yet been determined. In controlled studies in healthy adults and in patients with LGS, DS, and TSC, an increase in serum creatinine of approximately 10% was observed within 2 weeks of starting CBD-OS. The increase was reversible in healthy adults. Reversibility was not assessed in studies in LGS, DS, or TSC.

[9] = 50 mg/kg/day group (N = 73; one-third did not reach 50 mg/kg/day)

C=C(C)[C@@H]1CCC(C)=C[C@H]1c1c(O)cc(CCCCC)cc1O [CBD, cannabidiol]
Subjects with pneumonia, % ([1]; With CLB, 10 mg/kg/day, N1 = 85): 14.1% | Subjects with pneumonia, % ([1]; With CLB, 20 mg/kg/day, N1 = 167): 7.2% | Subjects with pneumonia, % ([1]; Without CLB, 20 mg/kg/day, N2 = 140): 2.9% | Patients who developed a new laboratory-defined anaemia during the study ([1]; patients with LGS and DS, normal haemoglobin at baseline, later below lower limit of normal): 27% | Discontinuation incidence for transaminase elevation ([1]; patients with LGS or DS): dose responsive | Pneumonia incidence ([1]; with clobazam, 10 mg/kg/day CBD): 14% | Pneumonia incidence ([1]; with clobazam, 20 mg/kg/day CBD): 7% | Pneumonia incidence ([1]; without concomitant clobazam, 10 mg/kg/day CBD): 0% | Pneumonia incidence ([1]; without concomitant clobazam, 20 mg/kg/day CBD): 3% | Prevention of seizures [2]: able to prevent seizures | Patients who became seizure free [3]: two of the four | Number of patients with a marked reduction of seizures [4]: 4 | Seizure frequency versus placebo ([5]; CBD alone or in combination with clobazam, across all treatment groups): significant reduction | Decrease in weight ([5]; patients with LGS, DS, or TSC): dose related | Incidence of pneumonia in patients concurrently taking clobazam in addition to CBD ([5]; versus patients not taking clobazam, LGS, DS and TSC): significantly higher | Alanine aminotransferase increased, adverse reaction incidence ([6]; 25 mg/kg/day (N = 75)): 12% | Anaemia, adverse reaction incidence ([6]; 25 mg/kg/day (N = 75)): 7% | Aspartate aminotransferase increased, adverse reaction incidence ([6]; 25 mg/kg/day (N = 75)): 11% | Decreased appetite, adverse reaction incidence ([6]; 25 mg/kg/day (N = 75)): 20% | Diarrhoea, adverse reaction incidence ([6]; 25 mg/kg/day (N = 75)): 31% | Eosinophil count increased, adverse reaction incidence ([6]; 25 mg/kg/day (N = 75)): 5% | Fatigue, adverse reaction incidence ([6]; 25 mg/kg/day (N = 75)): 5% | Gamma glutamyl transferase increased, adverse reaction incidence ([6]; 25 mg/kg/day (N = 75)): 16% | Nausea, adverse reaction incidence ([6]; 25 mg/kg/day (N = 75)): 9% | Pneumonia (grouped terms), adverse reaction incidence ([6]; 25 mg/kg/day (N = 75)): 4% | Pyrexia, adverse reaction incidence ([6]; 25 mg/kg/day (N = 75)): 19% | Rash, adverse reaction incidence ([6]; 25 mg/kg/day (N = 75)): 7% | Somnolence, adverse reaction incidence ([6]; 25 mg/kg/day (N = 75)): 13% | Urinary tract infection, adverse reaction incidence ([6]; 25 mg/kg/day (N = 75)): 5% | Vomiting, adverse reaction incidence ([6]; 25 mg/kg/day (N = 75)): 17% | Weight decreased, adverse reaction incidence ([6]; 25 mg/kg/day (N = 75)): 7% | Patients who developed a new laboratory-defined anaemia during the study ([6]; 25 mg/kg/day, patients with TSC, normal haemoglobin at baseline, later below lower limit of normal): 38% | Alanine aminotransferase increased, adverse reaction incidence [6, 9]: 22% | Anaemia, adverse reaction incidence [6, 9]: 4% | Aspartate aminotransferase increased, adverse reaction incidence [6, 9]: 19% | Decreased appetite, adverse reaction incidence [6, 9]: 23% | Diarrhoea, adverse reaction incidence [6, 9]: 56% | Eosinophil count increased, adverse reaction incidence [6, 9]: 1% | Fatigue, adverse reaction incidence [6, 9]: 6% | Gamma glutamyl transferase increased, adverse reaction incidence [6, 9]: 14% | Nausea, adverse reaction incidence [6, 9]: 3% | Pneumonia (grouped terms), adverse reaction incidence [6, 9]: 3% | Pyrexia, adverse reaction incidence [6, 9]: 16% | Rash, adverse reaction incidence [6, 9]: 12% | Somnolence, adverse reaction incidence [6, 9]: 26% | Urinary tract infection, adverse reaction incidence [6, 9]: 1% | Vomiting, adverse reaction incidence [6, 9]: 18% | Weight decreased, adverse reaction incidence [6, 9]: 8% | Subjects with pneumonia, % ([6]; With CLB, 25 mg/kg/day, N1 = 18): 16.7% | Subjects with pneumonia, % ([6]; With CLB, 50 mg/kg/day, N1 = 20): 5.0% | Subjects with pneumonia, % ([6]; Without CLB, 50 mg/kg/day, N2 = 53): 1.9% | Discontinuation for transaminase elevation ([6]; controlled trial in TSC): dose responsive | Pneumonia incidence ([6]; with concomitant clobazam, 25 mg/kg/day, patients with TSC): 17% | Pneumonia incidence ([6]; without clobazam, 25 mg/kg/day, patients with TSC): 0% | Control of seizures [7]: ineffective | Reversibility of the serum creatinine increase ([8]; healthy adults): reversible | Increase in serum creatinine ([8]; within 2 weeks of starting CBD-OS, healthy adults and patients with LGS, DS, and TSC): approximately 10%
